Laboratory results as given in patent US9694060B2, “Peptide vaccines based on the EGFRvIII sequence for the treatment of tumors” (The Board of Trustees of the Leland Stanford Junior …, priority 2012, dated 2017).
No end group written: not given here.

Test system: HC2 20d2/c cells, an NIH-3T3 cell line engineered to overexpress EGFRvIII
Test: tumor regression / survival experiments in mice bearing EGFRvIII-overexpressing tumors
Format: in vivo, NIH Swiss mice
Settings: for survival / effectiveness compared with Peptide G:KLH: Table 1 experiments; for survival / effectiveness compared with Peptide G:KLH / percent survival compared with Peptide G:KLH: in words; for percent survival compared with Peptide G:KLH: overall survival data (Table 2)
Protocol: The conjugated peptide vaccines were tested in tumor regression experiments and survival results were compared among animals treating with one of the conjugated peptide vaccines or KLH only.
Additional experiments were performed repeating the experiments described above.
For all experiments, the peptides were synthesized with the sequence as indicated with the cysteine at the carboxy terminus added for the purposes of conjugation. Peptides were then conjugated at a 1:1 w/w ratio to maleimide activated Keyhole Limpet Hemocyanin (KLH) for 24 hours. Following conjugation, the peptide:KLH conjugate was dialyzed against PBS to remove unconjugated peptide
NIH Swiss mice were inoculated subcutaneously in the right hand flank with 2×10^6 HC2 20d2/c cells, an NIH-3T3 cell line engineered to overexpress EGFRvIII. This cell line has been previously used to study anti-tumor responses to SEQ ID NO:2 conjugated to KLH (Moscatello et al., Cancer Res. 57:1419). On the 7th day following inoculation, mice were immunized with 100 μg of conjugated peptide in 100 μl of PBS emulsified with 100 μl of Freund's complete adjuvant. On the 14th day, mice were immunized with 100 μg of peptide in 100 μl of PBS emulsified with 100 μl of Freund's incomplete adjuvant.

[1] = Table 1, first experiments, s.c. tumor, immunized day 7 and day 14 with 100 μg conjugated peptide in Freund's adjuvant
[2] = Table 2, overall survival data compiled after additional repeat experiments, immunized day 7 and day 14 with 100 μg

Row | Substance | Survival [1] [%] | Survival [2] [%] | survival / effectiveness compared with Peptide G:KLH | percent survival compared with Peptide G:KLH
1 | Keyhole Limpet Hemocyanin [KLH only, reference compound] | 47 | 32 |  | 
2 | LEEKKANYVVTDHC:KLH (also: conjugated to KLH, site not given here) [Peptide A: KLH] | 90 | 80 | better survival rates | higher percent survival
3 | LEEKKPNYVVTDHC:KLH (also: conjugated to KLH, site not given here) [Peptide P: KLH] | 70 | 65 | better survival rates | higher percent survival
4 | LEEKKVNYVVTDHC:KLH (also: conjugated to KLH, site not given here) [Peptide V: KLH] | 70 | 70 | better survival rates | higher percent survival
